Where two headings read alike, the source gives them in different places.
Experiments:
[1] = system: HIV-1 (IIIB) in MT-4 cells; experiment: MT-4 HIV assay; assay type: cell-based; details: Human immunodeficiency virus 1, MT4, 120 h
In short: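 Antiviral activity was read by Cell Titer Glo after a 5-day, 37 °C culture of MT-4 cells pre-infected with a 1:250 dilution of HIV-1 (IIIB). Compounds were tested as threefold dilution series in complete RPMI. Controls were no drug, mock infection and 5 uM AZT.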

[2] = In short: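 Each compound (1 uM) is incubated in duplicate with 0.5 mg/mL liver microsomal protein from dog, rat or human plus NADPH-regenerating system. Samples taken at 2, 12, 25, 45 and 65 minutes are deproteinised and quantified by LC/MS/MS. Half-life gives Clint.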
[3] = HIV-1 (IIIB), MT-4 cells, 5 days, Cell Titer Glo, read-out: EC50
[4] = human liver microsomes 0.5 mg/mL, 1 uM compound, NADPH
[5] = rat liver microsomes 0.5 mg/mL, 1 uM compound, NADPH

| SMILES | EC50 [1, 3] [nM] | Human Pred Cl. ([2]; human, microsomes) [L/H/kg] | Rat. Pred. Cl. ([2]; rat, microsomes) [L/H/kg] | EC50 [1] [nM] | Human Pred Cl. [2, 4] [L/H/kg] | Rat. Pred. Cl. [2, 5] [L/H/kg] | Dog. Pred. Cl. ([2]; dog, microsomes) [L/H/kg] |
| --- | --- | --- | --- | --- | --- | --- | --- |
| COC(=O)N[C@H](C(=O)NN(Cc1c(F)cc(-c2ccn(CC(F)F)n2)cc1F)C[C@H](O)[C@H](Cc1ccc(C#Cc2ccc(N3CC4CCC(C3)N4C3COC3)nc2)cc1)NC(=O)[C@@H](NC(=O)OC)C(C)(C)C(F)(F)F)C(C)(C)C [Example 6, methyl ((5S,8S,9S,14S)-11-(4-(1-(2,2-difluoroethyl)-1H-pyrazol-3-yl)-2,6-difluorobenzyl)-9-hydroxy-15,15-dimethyl-8-(4-((6-(8-(oxetan-3-yl)-3,8-diazabicyclo[3.2.1]octan-3-yl)pyridin-3-yl)ethynyl)benzyl)-3,6,13-trioxo-5-(1,1,1-trifluoro-2-methylpropan-2-yl)-2-oxa-4,7,11,12-tetraazahexadecan-14-yl)carbamate] | 3.56 | <0.11 | 0.22 | – | – | – | – |
| COC(=O)N[C@H](C(=O)NN(Cc1c(F)cc(-c2ncccn2)cc1F)C[C@H](O)[C@H](Cc1ccc(C#Cc2ccc(N3C[C@H]4C[C@@H]3CN4C3COC3)nc2)cc1)NC(=O)[C@@H](NC(=O)OC)C(C)(C)C(F)(F)F)C(C)(C)C [Example 95] | – | – | – | 2.44 | 0.38 | 1.39 | – |
| COC(=O)N[C@H](C(=O)NN(Cc1c(F)cc(-c2cnccn2)cc1F)C[C@H](O)[C@H](Cc1ccc(C#Cc2ccc(N3CC4CCC(C3)N4C3COC3)nc2)cc1)NC(=O)[C@@H](NC(=O)OC)C(C)(C)C(F)(F)F)C(C)(C)C [Example 107, Methyl ((5S,8S,9S,14S)-11-(2,6-difluoro-4-(pyrazin-2-yl)benzyl)-9-hydroxy-15,15-dimethyl-8-(4-((6-(8-(oxetan-3-yl)-3,8-diazabicyclo[3.2.1]octan-3-yl)pyridin-3-yl)ethynyl)benzyl)-3,6,13-trioxo-5-(1,1,1-trifluoro-2-methylpropan-2-yl)-2-oxa-4,7,11,12-tetraazahexadecan-14-yl)carbamate] | 2.23 | 1.1 | – | – | – | – | – |
| COC(=O)N[C@H](C(=O)N[C@@H](Cc1ccc(C#Cc2cnc(N3CC4CCC(C3)N4C3COC3)nc2)cc1)[C@@H](O)CN(Cc1c(F)cc(-c2ccn(C(F)F)n2)cc1F)NC(=O)[C@@H](NC(=O)C1CC1)C(C)(C)C(F)(F)F)C(C)(C)C(F)(F)F [Example 186, Methyl ((2S)-1-(((2S,3S)-4-(2-((S)-2-(cyclopropanecarboxamido)-4,4,4-trifluoro-3,3-dimethylbutanoyl)-1-(4-(1-(difluoromethyl)-1H-pyrazol-3-yl)-2,6-difluorobenzyl) hydrazinyl)-3-hydroxy-1-(4-((2-(8-(oxetan-3-yl)-3,8-diazabicyclo[3.2.1]octan-3-yl)pyrimidin-5-yl)ethynyl)phenyl)butan-2-yl)amino)-4,4,4-trifluoro-3,3-dimethyl-1-oxobutan-2-yl)carbamate] | 4.74 | <0.11 | – | – | – | – | – |
| COC(=O)N[C@H](C(=O)NN(Cc1c(F)cc(-c2ccn(C(F)F)n2)cc1F)C[C@H](O)[C@H](Cc1ccc(-c2cnn(C(F)F)c2)cc1)NC(=O)[C@@H](NC(=O)OC)C(C)(C)C(F)(F)F)C(C)(C)C [Example 218, Methyl ((5S,8S,9S,14S)-11-(4-(1-(difluoromethyl)-1H-pyrazol-3-yl)-2,6-difluorobenzyl)-8-(4-(1-(difluoromethyl)-H-pyrazol-4-yl)benzyl)-9-hydroxy-15,15-dimethyl-3,6,13-trioxo-5-(1,1,1-trifluoro-2-methylpropan-2-yl)-2-oxa-4,7,11,12-tetraazahexadecan-14-yl)carbamate] | 2.99 | – | – | – | 0.92 | 0.45 | – |
| COC(=O)N[C@H](C(=O)N[C@@H](Cc1ccc(C#Cc2cnc(N3C[C@H]4C[C@@H]3CN4C3COC3)nc2)cc1)[C@@H](O)CN(Cc1c(F)cc(-c2ccn(C(F)F)n2)cc1F)NC(=O)[C@@H](NC(=O)OC)C(C)(C)C(F)(F)F)C(C)(C)C(F)(F)F [Example 32, Methyl ((5S,8S,9S,14S)-11-(4-(1-(difluoromethyl)-1H-pyrazol-3-yl)-2,6-difluorobenzyl)-16,16,16-trifluoro-9-hydroxy-15,15-dimethyl-8-(4-((2-((1R,4R)-5-(oxetan-3-yl)-2,5-diazabicyclo[2.2.1]heptan-2-yl)pyrimidin-5-yl)ethynyl)benzyl)-3,6,13-trioxo-5-(1,1,1-trifluoro-2-methylpropan-2-yl)-2-oxa-4,7,11,12-tetraazahexadecan-14-yl)carbamate] | 2.65 | – | – | – | <0.11 | 0.59 | – |
| COC(=O)N[C@H](C(=O)N[C@@H](Cc1ccc(C#Cc2ccc(N3CC4CCC(C3)N4C3(C)COC3)nc2)cc1)[C@@H](O)CN(Cc1c(F)cc(-c2ccn(C(F)F)n2)cc1F)NC(=O)[C@@H](NC(=O)OC)C(C)(C)C(F)(F)F)C(C)(C)C(F)(F)F [Example 144, Methyl ((5S,8S,9S,14S)-11-(4-(1-(difluoromethyl)-1H-pyrazol-3-yl)-2,6-difluorobenzyl)-16,16,16-trifluoro-9-hydroxy-15,15-dimethyl-8-(4-((6-(8-(3-methyloxetan-3-yl)-3,8-diazabicyclo[3.2.1]octan-3-yl)pyridin-3-yl)ethynyl)benzyl)-3,6,13-trioxo-5-(1,1,1-trifluoro-2-methylpropan-2-yl)-2-oxa-4,7,11,12-tetraazahexadecan-14-yl)carbamate] | 5.12 | 0.95 | – | – | – | – | – |
| COC(=O)N[C@H](C(=O)N[C@@H](Cc1ccc(C#Cc2ccc(N3CC4CCC(C3)N4C3COC3)nc2)cc1)[C@@H](O)CN(Cc1c(F)cc(-c2cc[nH]n2)cc1F)NC(=O)[C@@H](NC(=O)OC)C(C)(C)C(F)(F)F)C(C)(C)C(F)(F)F [Example 126, Methyl ((5S,8S,9S,14S)-11-(2,6-difluoro-4-(1H-pyrazol-3-yl)benzyl)-16,16,16-trifluoro-9-hydroxy-15,15-dimethyl-8-(4-((6-(8-(oxetan-3-yl)-3,8-diazabicyclo[3.2.1]octan-3-yl)pyridin-3-yl)ethynyl)benzyl)-3,6,13-trioxo-5-(1,1,1-trifluoro-2-methylpropan-2-yl)-2-oxa-4,7,11,12-tetraazahexadecan-14-yl)carbamate] | 4.13 | 0.45 | <0.18 | – | – | – | – |
| CC(C)([C@H](NC(=O)OC1COC1)C(=O)N[C@@H](Cc1ccc(C#Cc2cnc(N3CC4CCC(C3)N4C3COC3)nc2)cc1)[C@@H](O)CN(Cc1c(F)cc(-c2ccn(C(F)F)n2)cc1F)NC(=O)[C@@H](NC(=O)OC1COC1)C(C)(C)C(F)(F)F)C(F)(F)F [Example 220, Oxetan-3-yl ((2S)-1-(2-(4-(1-(difluoromethyl)-1H-pyrazol-3-yl)-2,6-difluorobenzyl)-2-((2S,3S)-2-hydroxy-4-(4-((2-(8-(oxetan-3-yl)-3,8-diazabicyclo [3.2.1]octan-3-yl)pyrimidin-5-yl)ethynyl)phenyl)-3-((S)-4,4,4-trifluoro-3,3-dimethyl-2-(((oxetan-3-yloxy)carbonyl)amino)butanamido)butyl)hydrazinyl)-4,4,4-trifluoro-3,3-dimethyl-1-oxobutan-2-yl)carbamate] | 7.66 | <0.11 | 0.34 | – | – | – | 0.46 |
| COC(=O)N[C@H](C(=O)N[C@@H](Cc1ccc(C#Cc2cnc(N3CC4CCC(C3)N4C3COC3)nc2)cc1)[C@@H](O)CN(Cc1c(F)cc(-c2ccn(C3CC3)n2)cc1F)NC(=O)[C@@H](NC(=O)OC)C(C)(C)C(F)(F)F)C(C)(C)C(F)(F)F [Example 37, Methyl ((5S,8S,9S,14S)-11-(4-(1-cyclopropyl-1H-pyrazol-3-yl)-2,6-difluorobenzyl)-16,16,16-trifluoro-9-hydroxy-15,15-dimethyl-8-(4-((2-(8-(oxetan-3-yl)-3,8-diazabicyclo[3.2.1]octan-3-yl)pyrimidin-5-yl)ethynyl)benzyl)-3,6,13-trioxo-5-(1,1,1-trifluoro-2-methylpropan-2-yl)-2-oxa-4,7,11,12-tetraazahexadecan-14-yl)carbamate] | 6.75 | <0.11 | 0.32 | – | – | – | – |
| COC(=O)N[C@H](C(=O)N[C@@H](Cc1ccc(C#Cc2cnc(N3C[C@H]4C[C@@H]3CN4C3COC3)nc2)cc1)[C@@H](O)CN(Cc1c(F)cc(-c2ccn(CC(F)F)n2)cc1F)NC(=O)[C@@H](NC(=O)OC)C(C)(C)C(F)(F)F)C(C)(C)C(F)(F)F [Example 25, Methyl ((5S,8S,9S,14S)-11-(4-(1-(2,2-difluoroethyl)-1H-pyrazol-3-yl)-2,6-difluorobenzyl)-16,16,16-trifluoro-9-hydroxy-15,15-dimethyl-8-(4-((2-((1R,4R)-5-(oxetan-3-yl)-2,5-diazabicyclo[2.2.1]heptan-2-yl)pyrimidin-5-yl)ethynyl)benzyl)-3,6,13-trioxo-5-(1,1,1-trifluoro-2-methylpropan-2-yl)-2-oxa-4,7,11,12-tetraazahexadecan-14-yl)carbamate] | 3.19 | – | – | – | 0.16 | 1.41 | – |
| COC(=O)N[C@H](C(=O)N[C@@H](Cc1ccc(C#Cc2ccc(N3CC4CCC(C3)N4C3COC3)nc2C)cc1)[C@@H](O)CN(Cc1c(F)cc(-c2ccccn2)cc1F)NC(=O)[C@@H](NC(=O)OC)C(C)(C)C(F)(F)F)C(C)(C)C(F)(F)F [Example 78, Methyl ((5S,8S,9S,14S)-11-(2,6-difluoro-4-(pyridin-2-yl)benzyl)-16,16,16-trifluoro-9-hydroxy-15,15-dimethyl-8-(4-((2-methyl-6-(8-(oxetan-3-yl)-3,8-diazabicyclo[3.2.1]octan-3-yl)pyridin-3-yl)ethynyl)benzyl)-3,6,13-trioxo-5-(1,1,1-trifluoro-2-methylpropan-2-yl)-2-oxa-4,7,11,12-tetraazahexadecan-14-yl)carbamate] | 6.27 | <0.11 | <0.18 | – | – | – | – |

— patent publication US10294234B2, “HIV inhibitor compounds” (priority 2017, dated 2019)
